# Laboratory results: US20210030673A1, “Method and a Compound for Preventing Mammalian Cancer Cell Proliferation and for Treating Cancer” (Oy Granula Ab Ltd., priority 2019, published 2021)
# Where two headings read alike, the source gives them in different places.
# How the values were obtained:
# [1] = tested on: normal human dermal fibroblast (HDF) cells
# Excerpt: Results are mean values from three independent experiments (±SEM).
# [2] = tested on: metastatic prostate cancer (PC-3) cells; assay: Live-cell imaging of PC-3 proliferation, BA or BOA; type: cell-based, human; conditions: 48-hour treatment
# Method: (§1) One day prior to the treatment, the cells were counted and plated on 24-well plates (Falcon) and incubated overnight at +37° C. (5% CO2). The following day, the cells were treated betulinic acid (BA) or betulonic acid (BOA) in concentrations of 0, 10, 50, 70, 100, and 150 μM. 1% DMSO was used to control for the effects of the solvent. All samples were made in triplicates. The cells were imaged for 48 h with 2 h intervals (9 images per well) using IncuCyte S3 Live-Cell Analysis System (Essen BioScience).
# [3] = tested on: metastatic prostate cancer (PC-3) cells; assay: Cytotoxicity assay of BA and BOA (Cell Counting Kit-8), PC-3; conditions: read-out: IC50-value, cell viability, PC-3
# Method: (§2) Cells were seeded with 5000 cells/well on a 96-well plate (Falcon) in RPMI-1640 medium (PC-3 cells) or DMEM medium (WM-266-4 cells) supplemented with 10% fetal bovine serum, 2 mM L-glutamine, 100 U/ml penicillin, and 100 μg/ml streptomycin. The cells were incubating overnight in +37° C., 5% CO2 for the cells to adhere to the plate. The following day, cells were treated with BA or BOA (prepared from stock solutions using DMSO as solvent) in concentrations of 0-200 μM in complete medium in replicate samples and incubated for 48 h. The old medium was thereafter discarded and substituted with 100 μL 10% Cell Counting Kit-8 reagent (Dojindo Molecular Technologies) diluted in serum-free RPMI-1640 medium. The samples were incubated for an additional 1 h prior to analyzing cell viability by measuring the absorbance at 450 nm using a microplate reader (Hidex Sense) according to manufacturer's protocol. Non-treated cells were used as a negative control. 1% DMSO was used to control for effect of solvent. All samples contained 1% or less DMSO. The experiment was repeated at least three independent times for accurate cytotoxicity analysis. The IC50-value was calculated using GraphPad Prism 6 software.
# [4] = as above; conditions: human, PC-3 metastatic prostate cancer cells
# Method: as §2
# [5] = tested on: metastatic melanoma (WM-266-4) cells; assay: Cytotoxicity assay of BA and BOA (Cell Counting Kit-8), WM-266-4; conditions: read-out: IC50-value, cell viability, WM-266-4
# Method: as §2
# [6] = as above; conditions: human, WM-266-4 metastatic melanoma cells
# Method: as §2
# [7] = tested on: metastatic melanoma (WM-266-4) cells; assay: Live-cell imaging of WM-266-4 proliferation, BOA; type: cell-based, human; conditions: 48-hour treatment
# Method: as §1
# [8] = tested on: metastatic prostate cancer (PC-3) cells; conditions: 100 µM
# Method: as §2
# [9] = tested on: metastatic melanoma (WM-266-4) cells; conditions: 100 µM
# Method: as §2
# [10] = 48 h treatment, complete medium
SMILES,effect on HDF cell proliferation [1],concentration giving maximum decrease of PC-3 proliferation [2] [µM],"IC50 ([3]; Homo sapiens, PC-3, 48 h) [µM]","viability at 48 h, 100 µM [4] [%]","IC50 ([5]; Homo sapiens, WM 266-4, 48 h) [µM]","viability at 48 h, 100 µM [6] [%]",concentration giving maximal decrease in WM-266-4 proliferation [7] [µM],viability of PC-3 cells [8],"IC50 [3, 10] [µM]",viability of WM-266-4 cells [9],"IC50 [5, 10] [µM]"
"C=C(C)[C@@H]1CC[C@]2(C(=O)O)CC[C@]3(C)[C@H](CC[C@@H]4[C@@]5(C)CC[C@H](O)C(C)(C)[C@@H]5CC[C@]43C)[C@@H]12 [BA, betulinic acid]",neither BA or BOA had any significant effects on HDF cells,50,68,~0,64.7,~0,–,–,–,–,–
"C=C(C)[C@@H]1CC[C@]2(C(=O)O)CC[C@]3(C)[C@H](CC[C@@H]4[C@@]5(C)CCC(=O)C(C)(C)[C@@H]5CC[C@]43C)[C@@H]12 [BOA, betulonic acid]",neither BA or BOA had any significant effects on HDF cells,50,–,–,–,–,50,below 20%,78.5,below 20%,39.8
